The conditions of this data set: 101.33 kPa, Liquid; for speed of sound: Sing-around technique in a fixed-path interferometer; for mass density: Vibrating tube method.

Numbers after ± are expanded uncertainties.

For the compound `C[S+](C)[O-]` [dimethyl sulfoxide], the speed of sound (usually how fast a sound wave travels through the sample) (293.15 K) is listed as 1503.2 ± 1.2 m/s, the speed of sound (298.15 K) is 1486.3 ± 1.2 m/s, the speed of sound (303.15 K) is recorded as 1469.2 ± 1.2 m/s and the speed of sound (308.15 K) is recorded as 1452.7 ± 1.2 m/s. The mass density (as a rule, the mass of a sample divided by its volume) (293.15 K) is given as 1100.43 ± 0.12 kg/m3; the mass density (298.15 K) turned out to be 1095.42 ± 0.12 kg/m3; the mass density (303.15 K) came to 1090.41 ± 0.12 kg/m3; the mass density (308.15 K) is listed as 1085.39 ± 0.12 kg/m3.

On to `CCn1cc[n+](C)c1.F[B-](F)(F)F` [1-ethyl-3-methylimidazolium tetrafluoroborate], for which the speed of sound (293.15 K) amounted to 1631 ± 2.4 m/s, the speed of sound (298.15 K) amounted to 1619.4 ± 2.4 m/s, the speed of sound (303.15 K) was found to be 1607.6 ± 2.4 m/s and the speed of sound (308.15 K) was found to be 1596.3 ± 2.4 m/s. For the same compound, the mass density is 1283.89 ± 1.5 kg/m3 (293.15 K), 1279.91 ± 1.5 kg/m3 (298.15 K), 1276.26 ± 1.5 kg/m3 (303.15 K) and 1272.07 ± 1.4 kg/m3 (308.15 K).

`CC(C)=O` [acetone]: the speed of sound reads like this: (293.15 K) 1186 ± 1.2 m/s; (298.15 K) 1163.8 ± 1.2 m/s; (303.15 K) 1141.4 ± 1.2 m/s; (308.15 K) 1119.1 ± 1.2 m/s. In addition, the mass density is reported as 789.987 ± 0.15 kg/m3 (293.15 K), 784.405 ± 0.15 kg/m3 (298.15 K), 778.871 ± 0.15 kg/m3 (303.15 K) and 773.066 ± 0.15 kg/m3 (308.15 K).
